Laboratory results taken from PMC6697720, “Saturation of acyl chains converts cardiolipin from an antagonist to an activator of Toll-like receptor-4” (Cellular and Molecular Life Sciences: CMLS, 2019).

Tested on: primary human monocytes
Assay: TNF-α and IL-1β secretion in primary human monocytes incubated with CL
Assay type: cell-based
Settings: CL alone, overnight
Method: Human monocytes were isolated from PBMCs by immunomagnetic negative selection using the EasySep™ human monocyte enrichment kit without CD16 depletion (STEMCELL™ Technologies).
100.000 of freshly isolated PBMCs or monocytes were mixed with stimulants to a final volume of 160 μL/well in round bottom 96-well plates.
After stimulation, supernatants were collected, centrifuged, and assayed for cytokine secretion, while cells were assayed for viability.
TNF-α and IP-10 were quantified in cell supernatants using DuoSet ELISA kits from R&D Systems and human IL-1β using Instant ELISA™ Kit from Invitrogen, according to the manufacturer’s instructions. Absorbance was read with a BioTek Synergy HT Microplate Readers.
Fig. 3 Saturated but not unsaturated CLs have pro-inflammatory properties. a RAW-Blue™ cells were incubated overnight with the indicated amount of CL or LPS, supernatants were collected, and NF-κB activation quantified via Quanti-Blue™ test and reported here as fold induction as compared to control. Unpaired t test: differences with respect to the control (Ctrl) are not significant if p > 0.05 (no symbol); *p ≤ 0.0007. b Immortalized BMDM cells were incubated overnight with the indicated amount of CL or LPS; supernatants were collected and TNF-α quantified via ELISA assay. c, d Primary human monocytes were incubated overnight with the indicated amount of CL or LPS with or without the NLRP3 inhibitor MCC950, supernatants were collected, and TNF-α and IL-1β were quantified via ELISA assay. Graphs are representative of experiments from six different donors. Unpaired t test: differences with respect to the control (Ctrl) are not significant if p > 0.05 (no symbol); *p ≤ 0.021. Each bar represents the mean + standard deviation of three biological replicates (n = 3). Graphs are representative of at least three independent experiments
C18:0 and C18:2 CLs’ pro-inflammatory activities were validated in primary monocytes isolated from human donor blood. C18:0 CL but not C18:2 CL reproduced LPS activity inducing TNF-α and IL-1β secretion in a dose-dependent manner (Fig. 3c, d).

With `CCCCCCCCCCCCCCCCCC(=O)OC[C@H](COP(=O)(O)OCC(O)COP(=O)(O)OC[C@@H](COC(=O)CCCCCCCCCCCCCCCCC)OC(=O)CCCCCCCCCCCCCCCCC)OC(=O)CCCCCCCCCCCCCCCCC` (some centres unmarked) [C18:0 CL] the IL-1β secretion was “inducing” and the TNF-α secretion was “inducing”.
